From ChEMBL document CHEMBL1201862, “PubChem BioAssay data set” (2004)
Each block holds one compound with its values, some of them ahead of it. Activity calls are given as the source filed them. Cut-off read from the data, not from the text of the source, for most assays here: actives have a measured IC50 and inactives only a lower limit.

What was measured:
Troponin, cardiac muscle = Troponin, cardiac muscle (Homo sapiens, UniProt P19429+P45379+P63316); assay: Fluorescence-based biochemical high throughput dose response assay for activators of the calcium sensitivity of cardiac Regulated Thin Filaments (RTF). [Related pubchem assays (depositor defined):AID493008, AID493018, AID504382, AID504383]; assay type: protein-complex assay
[1] = molecular target: DNA dC->dU-editing enzyme APOBEC-3G (Homo sapiens, UniProt Q9HC16); assay: Dose Response confirmation of small molecule APOBEC3G DNA Deaminase Inhibitors via a fluorescence-based single-stranded DNA deaminase assay. [Related pubchem assays (depositor defined):AID493012, AID493028]; assay type: functional
[2] = molecular target: DNA dC->dU-editing enzyme APOBEC-3A (Homo sapiens, UniProt P31941); assay: A3A deaminase inhibition for selectivity – biochemical, dose response (AID 504722); assay type: functional
[3] = molecular target: Nucleotide-binding oligomerization domain-containing protein 2 (Homo sapiens, UniProt Q9HC29); assay: PubChem AID 2334; assay type: functional
[4] = molecular target: T1, Nucleotide-binding oligomerization domain-containing protein 1 (Homo sapiens, UniProt Q9Y239); assay: blockers of NOD1 pathway activity – revised, SAR follow-up (AID 2333); assay type: functional
T1 sequence (Q9Y239 whole entry): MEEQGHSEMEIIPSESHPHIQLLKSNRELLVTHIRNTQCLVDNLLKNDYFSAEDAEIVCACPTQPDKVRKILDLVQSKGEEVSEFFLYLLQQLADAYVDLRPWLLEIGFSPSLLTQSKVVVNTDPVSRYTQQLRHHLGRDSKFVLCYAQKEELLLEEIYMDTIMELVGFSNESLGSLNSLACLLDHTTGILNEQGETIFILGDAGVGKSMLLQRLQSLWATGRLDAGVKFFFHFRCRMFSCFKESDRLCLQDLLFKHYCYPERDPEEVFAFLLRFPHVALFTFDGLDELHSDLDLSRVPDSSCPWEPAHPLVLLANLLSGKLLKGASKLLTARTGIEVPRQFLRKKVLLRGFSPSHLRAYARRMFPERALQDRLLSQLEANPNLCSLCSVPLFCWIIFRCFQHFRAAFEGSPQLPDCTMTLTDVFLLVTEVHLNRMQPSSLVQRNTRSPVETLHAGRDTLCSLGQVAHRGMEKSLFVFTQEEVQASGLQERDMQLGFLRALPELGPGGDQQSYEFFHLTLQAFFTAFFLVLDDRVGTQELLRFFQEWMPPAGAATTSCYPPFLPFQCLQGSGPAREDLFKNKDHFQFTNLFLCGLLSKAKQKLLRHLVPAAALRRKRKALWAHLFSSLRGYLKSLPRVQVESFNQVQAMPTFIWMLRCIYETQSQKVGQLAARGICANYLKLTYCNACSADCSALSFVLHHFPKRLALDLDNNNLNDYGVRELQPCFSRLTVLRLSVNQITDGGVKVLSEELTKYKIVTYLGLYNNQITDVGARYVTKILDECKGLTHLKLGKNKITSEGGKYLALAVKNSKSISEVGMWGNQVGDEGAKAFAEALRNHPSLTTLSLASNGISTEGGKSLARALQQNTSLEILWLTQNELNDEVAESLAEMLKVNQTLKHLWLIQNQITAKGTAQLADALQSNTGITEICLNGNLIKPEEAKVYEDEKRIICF

HEK293 = assay: cells; conditions: Homo sapiens;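 note: cells exposed to compound for 14 hours overnight before viability readout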
Tumor necrosis factor = Tumor necrosis factor (Homo sapiens, UniProt P01375); assay: analog potency on TNFa NF-kB signaling – cell-based, revised, SAR follow-up (AID 2337); assay type: functional
[5] = molecular target: T2, Tyrosine-protein phosphatase non-receptor type 7 (Homo sapiens, UniProt P35236); assay: redox-active compounds inhibiting HePTP phosphatase – biochemical, fluorescence, mechanism study (AID 2068); assay type: functional
T2 sequence (P35236 whole entry): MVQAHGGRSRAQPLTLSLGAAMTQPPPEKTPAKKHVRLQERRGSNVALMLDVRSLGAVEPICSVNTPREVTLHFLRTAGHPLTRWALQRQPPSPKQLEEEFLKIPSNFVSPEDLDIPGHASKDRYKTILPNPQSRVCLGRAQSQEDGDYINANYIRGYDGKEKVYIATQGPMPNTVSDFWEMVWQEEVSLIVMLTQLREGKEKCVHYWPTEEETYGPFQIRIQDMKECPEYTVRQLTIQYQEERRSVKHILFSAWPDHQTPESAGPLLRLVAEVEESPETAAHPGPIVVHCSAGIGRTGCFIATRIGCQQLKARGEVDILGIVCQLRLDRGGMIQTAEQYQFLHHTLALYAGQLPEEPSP

Wee1-like protein kinase = Wee1-like protein kinase (Homo sapiens, UniProt P30291); assay: HeLa cell cycle G2/M accumulation – FACS, mechanism study for Wee1 degradation inhibitor project, late-stage follow-up, panel member Wee1 Degradation (AID 2088)
[6] = molecular target: G2/mitotic-specific cyclin-B1 (Homo sapiens, UniProt P14635); assay: HeLa cell cycle G2/M accumulation – FACS, mechanism study for Wee1 degradation inhibitor project, late-stage follow-up, panel member Cyclin B Degradation (AID 2088)
[7] = molecular target: Cyclin-dependent kinase 5/CDK5 activator 1 (Homo sapiens, UniProt Q00535); assay: blockade of human CDK5 activity – biochemical, cherry-picked samples, set 2, dose response (AID 504545)
[8] = molecular target: T3, Corticotropin-releasing factor receptor 2/Corticotropin-releasing factor-binding protein (Homo sapiens, UniProt P24387+Q13324); assay: Dose Response confirmation of uHTS hits for small molecule antagonists of the CRF-binding protein and CRF-R2 receptor complex.; assay type: functional; conditions: read-out: IC50_Mean
T3 sequence (Q13324 whole entry): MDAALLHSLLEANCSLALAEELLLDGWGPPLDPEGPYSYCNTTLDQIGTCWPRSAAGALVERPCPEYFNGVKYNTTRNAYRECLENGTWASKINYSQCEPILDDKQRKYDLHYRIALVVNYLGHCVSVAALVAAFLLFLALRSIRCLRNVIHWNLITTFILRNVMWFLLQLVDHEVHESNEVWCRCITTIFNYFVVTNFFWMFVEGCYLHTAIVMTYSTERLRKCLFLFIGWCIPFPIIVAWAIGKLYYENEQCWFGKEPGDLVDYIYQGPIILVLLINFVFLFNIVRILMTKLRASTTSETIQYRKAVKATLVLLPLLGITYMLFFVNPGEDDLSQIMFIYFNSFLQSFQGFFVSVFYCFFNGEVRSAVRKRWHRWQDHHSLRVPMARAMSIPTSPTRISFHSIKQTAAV
T3 sequence (P24387 whole entry): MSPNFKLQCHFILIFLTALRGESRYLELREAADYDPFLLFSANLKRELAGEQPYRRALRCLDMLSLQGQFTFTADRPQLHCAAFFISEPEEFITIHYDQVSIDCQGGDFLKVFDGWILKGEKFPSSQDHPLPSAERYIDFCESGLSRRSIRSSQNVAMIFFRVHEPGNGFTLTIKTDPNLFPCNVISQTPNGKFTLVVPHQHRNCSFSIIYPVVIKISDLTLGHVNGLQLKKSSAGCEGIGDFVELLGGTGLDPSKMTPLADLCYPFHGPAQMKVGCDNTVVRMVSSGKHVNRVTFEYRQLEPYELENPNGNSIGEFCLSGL

[9] = molecular target: T3, Corticotropin-releasing factor receptor 2/Corticotropin-releasing factor-binding protein; assay: activators of CRF receptor 2 with binding protein – uHTS hits, confirmation (AID 602473); assay type: functional; conditions: read-out: EC50_Mean
[10] = molecular target: Melanin-concentrating hormone receptor 1 (Homo sapiens, UniProt Q99705); assay: Late-stage fluorescence-based counterscreen for antagonists of the G-protein coupled receptor 7 (GPR7): cell-based dose response assay to identify antagonists of the melanin-concentrating hormone receptor 1 (MCHR1). [Related pubchem assays (depositor defined):AID1861, AID1880, AID1952, AID2148, AID2251, AID2257, AID485339]; assay type: functional;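 note: stimulated with 30 nM MCH peptide agonist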

Compound: CN(CC(=O)Nc1nnc(S)s1)S(=O)(=O)c1cccc2cccnc12
IC50 [1]: 1.95 µM (active)
IC50 [2]: > 100 µM (inactive)

Compound: Cc1cc(C(=O)NC2CCCc3c2cnn3-c2ccccc2F)n(Cc2ccc(F)cc2)n1 (centres undefined)
IC50 [3]: > 20 µM (inactive)
IC50 [4]: > 20 µM (inactive)
IC50 (HEK293): > 20 µM (inactive)
IC50 (Tumor necrosis factor): > 20 µM (inactive)

Compound: CCOc1ccc(NC(=O)Nc2ccc3nc(-c4ccco4)c(-c4ccco4)nc3c2)cc1
IC50 [5]: 10.4 µM (active)

Compound: Nc1ccc2c(c1)C(=NO)c1ccccc1-2
AC50 [7]: 39.9 µM (active)
IC50 [8]: > 47.1 µM (inactive)
EC50 [9]: > 53 µM (inactive)

Continued, values first:

EC50 (Troponin, cardiac muscle): > 71.5 µM (inactive)
Compound: O=C(NC1CCCCC1)c1cc2nc3c(c(C(F)(F)F)n2n1)CCCC3

EC50 (Wee1-like protein kinase): > 49.7 µM (inactive)
EC50 [6]: > 49.7 µM (inactive)
Compound: COc1ccc(C(=O)Nc2cc(C)nn2-c2nc(C)cc(O)n2)cc1

IC50 [10]: 6.9 µM (active)
Compound: COC(=O)c1cnn(-c2ccc(C(C)C)cc2)c(=O)c1Oc1ccc(OC)cc1
